In patent US20240076620A1, “PRODUCTION OF SKELETAL MUSCLE CELLS AND SKELETAL MUSCLE TISSUE FROM PLURIPOTENT STEM CELLS” (Georg-August-Universität Göttingen Stiftung Öffentlichen …, priority 2019, published 2024):

Key:
Type in all cases: cell-based, human
[1] = test system: engineered skeletal muscle tissue (ESM); assay: Isometric force measurements of engineered skeletal muscle (ESM) matured with medium additives; details: for contraction speed (+dFOC/dt): 100 Hz stimulation; for contraction speed (+dFOC/dt) / relaxation speed (−dFOC/dt): vs without added T3; for relaxation speed (−dFOC/dt): after 100 Hz stimulation; for increase of the force of contraction: 100 Hz, vs no creatine
From the text: To further increase the function of engineered skeletal muscle, e.g. the contraction force can be increased by adding specific molecules. In this example, we specifically tested the enhancement of the contraction force, as well as contraction and relaxation times, in response to the addition of creatine and an increased concentration of thyroid hormone T3 (triiodo-L-thyronine (T3); from 3 to 100 nmol/L in the maturation medium in step iv). Here, the procedure according to Examples 1 and 2 was performed first. In contrast to Example 2, the maturation medium was supplemented with creatine or an increased concentration of T3 either between days 28 and 56 or between days 56 and 84 of the method.
The maturation medium was changed every other day and cultured under mechanical stretching for up to 9 weeks. The maturation medium comprised DMEM, with low glucose, GlutaMAX™ Supplement, pyruvate (Thermo Fisher Scientific), 1% N-2 Supplement (Thermo Fisher Scientific), 2% B-27 Supplement (Thermo Fisher Scientific), and optional antibiotics (e.g., 1% Pen/Strep-Thermo Fisher Scientific). 0.1 μM T3 (Sigma-Aldrich) or 1 mM creatine monohydrate (Sigma-Aldrich) were added to the maturation medium for a four-week period when indicated (e.g., day 28-56 or day 56-84).
The contractile function of engineered skeletal muscle tissue was measured under isometric conditions in an organ bath filled with gassed (5% CO2/95% 02) Tyrode solution (containing in mmol/L): 120 NaCl, 1 MgCl2, 0.2 CaCl2), 5.4 KCl, 22.6 NaHCO3, […], 5.6 glucose, and 0.56 ascorbate) at 37° C. To verify the force-length relationship—while ESMs were electrically stimulated at 1 Hz with 5 ms rectangular pulses of 200 mA—muscle length was increased by mechanical stretching in intervals of 125 μm, until the maximum contraction force was observed. At the length of maximum force generation, tetanic contraction force was assessed under defined stimulation frequencies (4-second stimulation at 10, 20, 40, 60, 80, and 100 Hz).

[2] = test system: MYH2 (fast myosin heavy chain); assay: Western blot of myosin heavy chain protein in ESM; details: four-week addition of 0.1 μM T3; day 84; three independent experiments
Protocol: (§1) To investigate the molecular cause of this improved muscle function, the expression of different proteins was analyzed by Western blots. MYH2 is the heavy chain of the fast myosin (MYH2; fast myosin heavy chain); MYH7 is the heavy chain of the slow myosin (MYH7; slow myosin heavy chain); MYH3 is the heavy chain of the embryonic myosin (MYH3; embryonic myosin heavy chain). Protein expression was analyzed at day 84. […] Based on three independent experiments, the expression is increased at least 5-fold. The expression of MYH7 remained unchanged by an addition of 0.1 μM T3. […] These protein expression data support the functional data from FIGS. 10B, as the reduced response time of the engineered skeletal muscle can be explained by an increased expression of the fast myosin (MYH2) isoform by T3.
(§2) For protein isolation, engineered skeletal muscle was placed in an Eppendorf tube and snap frozen in liquid nitrogen. To the engineered skeletal muscle, 150 μl of ice-cold protein lysate buffer (2.38 g HEPES, 10.20 g NaCl, 100 ml glycerol, 102 mg MgCl2, 93 mg EDTA, 19 mg EGTA, 5 ml NP-40 in a total volume of 500 ml ddH2O) containing 1/10 phosphatase inhibitor (Roche) and 1/7 protease inhibitor (Roche) were added. A 7-mm stainless steel ball (Qiagen) was added to the Eppendorf tube, and the sample was homogenized using the TissueLyser II (Qiagen) for 30 seconds at 30 Hz and 4° C., followed by incubation on ice for 2 hours and then centrifugation at 12,000 rpm and 4° C. for 30 minutes. The supernatant was collected as a protein sample, and the protein concentration was measured by Bradford protein assay. […] Protein expression in ESM was analyzed by Western blot using the following primary antibodies: monoclonal embryonic myosin heavy chain 3 (1:500, F1.652, DSHB), slow myosin type heavy chain 7 (1:500, A4.951, DSHB), and fast myosin type heavy chain 2 (1:100, A4.74, DSHB). […] Protein quantification from the Western blot was performed using ImageJ.

[3] = test system: MYH3 (embryonic myosin heavy chain); assay: Western blot of myosin heavy chain protein in ESM; details: addition of 0.1 μM T3; day 84; on average
Protocol: as §1, §2

[4] = test system: MYH7 (slow myosin heavy chain); assay: Western blot of myosin heavy chain protein in ESM; details: addition of 0.1 μM T3; day 84
Protocol: as §1, §2

[5] = 0.1 μM T3 between days 56 and 84

Compound	contraction speed (+dFOC/dt) [1, 5]	relaxation speed (−dFOC/dt) [1, 5]	contraction speed (+dFOC/dt) ([1]; 0.1 μM T3 day 28 to day 56)	relaxation speed (−dFOC/dt) ([1]; 0.1 μM T3 day 28 to day 56)	protein expression of MYH2, increase [2]	MYH3 expression [3]	expression of MYH7 [4]	increase of the force of contraction ([1]; 1 mM creatine day 28 to day 56) [%]	increase of the force of contraction ([1]; 1 mM creatine day 56 to day 84) [%]	force of contraction (FOC) ([1]; maturation medium with 1 mM creatine day 28 to day 56, tetanic contraction at 100 Hz stimulation, without creatine 1.8 mN) [mN]	force of contraction (twitch tension) ([1]; maturation medium with 1 mM creatine day 56 to day 84, tetanic contraction at 100 Hz stimulation, without creatine 4.0 mN) [mN]
N[C@@H](Cc1cc(I)c(Oc2ccc(O)c(I)c2)c(I)c1)C(=O)O [T3, triiodo-L-thyronine]	decreased	decreased	decreased significantly	decreased significantly	at least 5 fold	reduced by approximately half	unchanged	–	–	–	–
CN(CC(=O)O)C(=N)N [creatine]	–	–	–	–	–	–	–	39	30	2.5	5.2
